Experiment [1] has as its system NaCT-CHO (CHO cells stably expressing human NaCT). The experiment in a line: Assay of the citric acid cycle activation ([1,5-14C]-citric acid, diffusion of [14C]-CO2). As to conditions: 1 hour incubation at 37° C. with [1,5-14C]-citric acid. Format: cell-based. A digest of the protocol: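 NaCT-CHO cells (pME-CHO empty-vector cells for non-specific counts) were incubated 1 h at 37 °C in Na+-containing HEPES-Tris pH 7.4 with compound plus an equal volume of 0.4 mM [1,5-14C]-citric acid solution. Residual cell radioactivity was counted, [14C]-CO2 diffusion was taken as (Total−R)/(Total−NS)×100%, and EC50 was derived by regression.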

The subject of experiment [2] is Zucker Diabetic Fatty (ZDF) rat. The experiment in a line: Meal load test in type 2 diabetic model rats (postprandial blood glucose). Format: in vivo. Further details: unit not given here. The note with it: ZDF rats fasted overnight, oral 10 mg/kg in 5% Arabia gum, blood glucose one hour after meal loading (50 kcal/kg). A digest of the protocol: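 Overnight-fasted (17 h) ZDF rats, n=6 per group, given compound at 10 or 30 mg/kg orally in 5% Arabia gum 2 h before or just before a 50 kcal/kg AIN-93G meal load. Blood glucose at 1 h; effect expressed as BG1h difference from vehicle.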

Data on 21 compounds can be found in US10626095B2, “Cyanotriazole compounds” (OTSUKA PHARMACEUTICAL CO., LTD., priority 2013, dated 2020).

As usually defined, the EC50 is the concentration that produces a half-maximal response. On to `N#Cc1[nH]nnc1-c1cc(Cl)cc(-c2ccc(OC(F)(F)F)c(F)c2)c1` [Example 276, 5-(5-chloro-3′-fluoro-4′-trifluoromethoxy-biphenyl-3-yl)-3H-[1,2,3]triazole-4-carbonitrile], for which the concentration for a half-maximal effect (EC50) in experiment [1] amounted to 850 nM. In addition, in experiment [2], the “BG1h (BG1h difference between compound group and vehicle group)” value is given as −71.4.
The corresponding values for `N#Cc1[nH]nnc1-c1cc(OC(F)(F)F)cc(-c2ccc(OC(F)(F)F)c(F)c2)c1` [Example 298, 5-(3′-fluoro-5,4′-bis-trifluoromethoxy-biphenyl-3-yl)-3H-[1,2,3]triazole-4-carbonitrile] are 740 nM and −62.8.
The corresponding values for `N#Cc1[nH]nnc1-c1cccc(OCc2ccc(C(F)(F)F)c(C(F)(F)F)c2)c1` [Example 423, 5-[3-(3,4-bis-trifluoromethyl-benzyloxy)-phenyl]-3H-[1,2,3]triazole-4-carbonitrile] are 920 nM and −87.6.
The corresponding values for `N#Cc1[nH]nnc1-c1cc(OCc2cc(C(F)(F)F)ccc2C(F)(F)F)cc(OC(F)(F)F)c1` [Example 504, 5-[3-(2,5-bis-trifluoromethyl-benzyloxy)-5-trifluoromethoxy-phenyl]-3H-[1,2,3]triazole-4-carbonitrile] are 1470 nM and −69.1.
On to `N#Cc1[nH]nnc1-c1cc(Cl)cc(/C=C/c2cc(C(F)(F)F)cc(C(F)(F)F)c2)c1` [Example 610, 5-{3-[(E)-2-(3,5-bis-trifluoromethyl-phenyl)-vinyl]-5-chloro-phenyl}-3H-[1,2,3]triazole-4-carbonitrile], for which the concentration for a half-maximal effect (EC50) in experiment [1] turned out to be 1740 nM. Also, the “BG1h (BG1h difference between compound group and vehicle group)” value in experiment [2] is recorded as −86.8.
The compound `N#Cc1[nH]nnc1-c1cccc(/C=C/c2cccc(C(F)(F)F)c2)c1` [Example 613, 5-{3-[(E)-2-(3-trifluoromethyl-phenyl)-vinyl]-phenyl}-3H-[1,2,3]triazole-4-carbonitrile] registered a concentration giving a half-maximal response (EC50) in experiment [1] of 430 nM. Moreover, the “BG1h (BG1h difference between compound group and vehicle group)” value in experiment [2] was −138.8.
`N#Cc1[nH]nnc1-c1cccc(/C=C/c2ccc(C(F)(F)F)cc2)c1` [Example 617, 5-{3-[(E)-2-(4-trifluoromethyl-phenyl)-vinyl]-phenyl}-3H-[1,2,3]triazole-4-carbonitrile]: the response in experiment [1] was half-maximal at 480 nM (EC50). The “BG1h (BG1h difference between compound group and vehicle group)” value in experiment [2] was −113.3.
In turn, `N#Cc1[nH]nnc1-c1cc(/C=C/c2cccc(C(F)(F)F)c2)cc(C(F)(F)F)c1` [Example 620, 5-{3-trifluoromethyl-5-[(E)-2-(3-trifluoromethyl-phenyl)-vinyl]-phenyl}-3H-[1,2,3]triazole-4-carbonitrile] came in with an EC50 in experiment [1] of 1450 nM. Besides, the “BG1h (BG1h difference between compound group and vehicle group)” value in experiment [2] is listed as −159.7.
In the case of `N#Cc1[nH]nnc1-c1cc(Cl)cc(/C=C/c2ccc(F)cc2)c1` [Example 623, 5-{3-chloro-5-[(E)-2-(4-fluoro-phenyl)-vinyl]-phenyl}-3H-[1,2,3]triazole-4-carbonitrile], the EC50 in experiment [1] amounted to 690 nM. Moreover, in experiment [2], the “BG1h (BG1h difference between compound group and vehicle group)” value was −111.2.
For `Cc1cc(/C=C/c2ccc(F)cc2)cc(-c2nn[nH]c2C#N)c1` [Example 627, 5-{3-[(E)-2-(4-fluoro-phenyl)-vinyl]-5-methyl-phenyl}-3H-[1,2,3]triazole-4-carbonitrile], the EC50 in experiment [1] was 740 nM. In addition, the “BG1h (BG1h difference between compound group and vehicle group)” value in experiment [2] is recorded as −85.2.
Turning to `N#Cc1[nH]nnc1-c1cc(/C=C/c2ccc(F)cc2)cc(OC(F)(F)F)c1` [Example 639, 5-{3-[(E)-2-(4-fluoro-phenyl)-vinyl]-5-trifluoromethoxy-phenyl}-3H-[1,2,3]triazole-4-carbonitrile], the midpoint of the response in experiment [1], the EC50, lay at 1210 nM. Further, in experiment [2], the “BG1h (BG1h difference between compound group and vehicle group)” value is reported as −58.5.
The corresponding values for `N#Cc1[nH]nnc1-c1cccc(/C=C/c2ccc(F)cc2)c1` [Example 640, 5-{3-[(E)-2-(4-fluoro-phenyl)-vinyl]-phenyl}-3H-[1,2,3]triazole-4-carbonitrile] are 670 nM and −62.0.
For the compound `CCOc1cc(/C=C/c2cccc(C(F)(F)F)c2)cc(-c2nn[nH]c2C#N)c1` [Example 644, 5-{3-ethoxy-5-[(E)-2-(3-trifluoromethyl-phenyl)-vinyl]-phenyl}-3H-[1,2,3]triazole-4-carbonitrile], the EC50 in experiment [1] turned out to be 2350 nM. Also, the “BG1h (BG1h difference between compound group and vehicle group)” value in experiment [2] was −131.0.
The corresponding values for `N#Cc1[nH]nnc1-c1cc(/C=C/c2ccc(F)cc2F)cc(C(F)(F)F)c1` [Example 645, 5-{3-[(E)-2-(2,4-difluoro-phenyl)-vinyl]-5-trifluoromethyl-phenyl}-3H-[1,2,3]triazole-4-carbonitrile] are 1090 nM and −121.6.
In the case of `N#Cc1[nH]nnc1-c1cccc(/C=C/c2ccc(F)cc2F)c1` [Example 646, 5-{3-[(E)-2-(2,4-difluoro-phenyl)-vinyl]-phenyl}-3H-[1,2,3]triazole-4-carbonitrile], a half-maximal response in experiment [1] (EC50) required 620 nM. The “BG1h (BG1h difference between compound group and vehicle group)” value in experiment [2] was −89.3.
Compound `N#Cc1[nH]nnc1-c1cc(Cl)cc(/C=C/c2cccc(OC(F)(F)F)c2)c1` [Example 649, 5-{3-chloro-5-[(E)-2-(3-trifluoromethoxy-phenyl)-vinyl]-phenyl}-3H-[1,2,3]triazole-4-carbonitrile] gave a concentration for a half-maximal effect (EC50) in experiment [1] of 2470 nM. Further, in experiment [2], the “BG1h (BG1h difference between compound group and vehicle group)” value is −99.4.
On the same counts, the results for `COc1cc(/C=C/c2cccc(C(F)(F)F)c2)cc(-c2nn[nH]c2C#N)c1` [Example 657, 5-{3-methoxy-5-[(E)-2-(3-trifluoromethyl-phenyl)-vinyl]-phenyl}-3H-[1,2,3]triazole-4-carbonitrile] are 1160 nM and −120.5.
The compound `N#Cc1[nH]nnc1-c1cccc(/C=C/c2cc(F)cc(C(F)(F)F)c2)c1` [Example 659, 5-{3-[(E)-2-(3-fluoro-5-trifluoromethyl-phenyl)-vinyl]-phenyl}-3H-[1,2,3]triazole-4-carbonitrile] displayed a half-maximal effective concentration (EC50) in experiment [1] of 810 nM. Further, the “BG1h (BG1h difference between compound group and vehicle group)” value in experiment [2] is recorded as −161.2.
On the same counts, the results for `N#Cc1[nH]nnc1-c1cccc(/C=C/c2ccc(F)c(C(F)(F)F)c2)c1` [Example 663, 5-{3-[(E)-2-(4-fluoro-3-trifluoromethyl-phenyl)-vinyl]-phenyl}-3H-[1,2,3]triazole-4-carbonitrile] are 1250 nM and −149.5.
The corresponding values for `N#Cc1[nH]nnc1-c1cccc(-c2cc(C(F)(F)F)ccn2)c1` [Example 790, 5-[3-(4-trifluoromethyl-pyridin-2-yl)-phenyl]-3H-[1,2,3]triazole-4-carbonitrile] are 980 nM and −61.5.
Take `Cc1cc(-c2ccc(C(F)(F)F)cn2)cc(-c2nn[nH]c2C#N)c1` [Example 807, 5-[3-methyl-5-(5-trifluoromethyl-pyridin-2-yl)-phenyl]-3H-[1,2,3]triazole-4-carbonitrile]: the response in experiment [1] was half-maximal at 1100 nM (EC50). Further, the “BG1h (BG1h difference between compound group and vehicle group)” value in experiment [2] is on record as −94.5.
